Assay [1] deals with NGF production in the L-M cells. The assay is described as follows: Enhancing activity for NGF production, Example 13 method (20 hours culture after addition). As to conditions: Mus musculus, negative control = 100%, read-out: Enhancement Ratio (%). In kind it is cell-based, murine. On the procedure:
(§1) L-M cells (ATCC CCL-1.2) from murine fibroblasts were suspended in an M199 medium (manufactured by ICN) containing 0.5% bactopeptone (manufactured by Gibco BRL) so as to have a concentration of 1.5×10^5 cells/mi. The suspension was put in a 96-well plate in an amount of 0.1 ml each well, and the cells were aseptically cultured. After culturing the cells for 3 days, the medium was removed therefrom, and exchanged with an M199 medium containing 0.5% bovine serum albumin (manufactured by Sigma). Caffeic acid (manufactured by Sigma, dimethyl suif oxide (DMSO) solution), a substance known to have enhancing activity for NGF production, was added to each well containing the cells, so as to have a final concentration of 0, 50, 100 or 200 μM, and the cells were cultured for 24 hours. One having a caffeic acid concentration of 0 μM was used as a negative control. In addition, the final concentration of DM50 in each well was adjusted to 0.1%. After the termination of the culture, the NGF concentration in the culture medium was determined by an enzyme immunoassay method (NGF Emax Immuno Assay System, manufactured by Promega). The degree of the enhancement for NGF production of caffeic acid at each added amount was expressed in percentage as the enhancement ratio (%) on the basis of the NGF concentration in the cell culture medium at each added amount, when the NGF concentration in the cell culture medium of the negative control was defined as 100%. The experiment was carried out twice, and an average value was taken. It was shown that the enhancing activity for NGF production of caffeic acid could be assayed by this method.
The enhancing activity for NGF production of each of the compounds (5) to (12), (17) to (22), (24) and (25) prepared in Preparation Examples 2 to 9 and Examples 1 to 8, and the compound (23) (rosemarinic acid; manufactured by Funakoshi), or caffeic acid (CA), 4-methylcatechol (4MC) and epinephrine (EN), substances conventionally known to enhance NGF production was assayed in the same manner as in Reference Example 1. In addition, the time period for cell culture after the addition of the compound was 20 hours. A negative control was set for every test of each compound. Each experiment was carried out twice, and an average value was taken.
(1) L-M cells (ATCC CCL-1.2) from murine fibroblasts were suspended in an M199 medium (manufactured by ICN) containing 0.5% bactopeptone (manufactured by Gibco) so as to have a concentration of 1.5×10^5 cells/ml. The suspension was put in a 96-well plate in an amount of 0.1 ml each well, and the cells were aseptically cultured. After culturing the cells for 3 days, the medium was removed therefrom, and exchanged with an M199 medium containing 0.5% bovine serum albumin (manufactured by Sigma). Thereto was added an yellow pigment (powder Sun Yellow No. 2, manufactured by San-Ei Gen F.F.I.) obtained by extraction from flower of Carthamus tinctorius LINNE) as the sample so as to have a final concentration of 0, 1.25, 2.5 or 5 mg/ml, and the cells were cultured for 20 hours. After the termination of the culture, the NGF concentration in the culture medium was assayed by an enzyme immunoassay method (NGF Emax Immuno Assay System, manufactured by Promega). The degree of the enhancement for NGF production was expressed in the percentage as an enhancement ratio (%), when the NGF concentration in the cell culture medium with no addition of the sample as the negative control was defined as 100%. The experiment was carried out twice, and an average value was taken. […]
The enhancing activity for NGF production of the purified safflomin A thus obtained was determined in the same manner as in Example 13. The purified safflomin A was added so as to have a fmal concentration of 0 or 2.5 mg/ml. […]

The test system is the same in assay [2]. The assay is described as follows: Enhancing activity for NGF production, Reference Example 1 method (24 hours culture, NGF enzyme immunoassay of culture medium). Format: cell-based, murine. As to conditions: for Enhancement of NGF production (in words): L-M cells; for Enhancement Ratio (%): negative control = 100%. On the procedure:
as §1
The enhancing activity for NGF production of the compound (13) (manufactured by Funakoshi) was assayed in the same manner as in Reference Example 1. The compound (13) was added so as to have a final concentration of 0, 0.5, 1, 2, 5, 10, 20 or 50 μM.
The enhancing activity for NGF production of a compound (14) (manufactured by Sigma) was assayed in the same manner as in Reference Example 1. The compound (14) was added so as to have a final concentration of 0, 50, 100 or 200 μM.
The enhancing activity for NGF production of a compound (15) (manufactured by Sigma) was assayed in the same manner as in Reference Example 1. The compound (15) was added so as to have a final concentration of 0, 12.5, 25 or 50 μM.
The enhancing activity for NGF production of a compound (16) (manufactured by Wako Pure Chemical Industries) was assayed in the same manner as in Reference Example 1. The compound (16) was added so as to have a final concentration of 0, 25, 50 or 100 μM.

Assay [3] has the same test system. The assay is described as follows: Enhancement for NGF production by flavonols, Example 16 (24 hours culture). In kind it is cell-based, rat. As to conditions: for Enhancement of NGF production (in words): L-M cells; for Enhancement Ratio (%): negative control (distilled water) = 100%. The method, then:
L-M cells (ATCC CCL-1.2) from […] fibroblasts were suspended in an M199 medium (manufactured by ICN) containing 0.5% bactopeptone (manufactured by Gibco BRL) so as to have a concentration of 1.5×10^5 cells/ml. The suspension was put in a 96-well plate in an amount of 0.1 ml each well, and the cells were aseptically cultured. After culturing the cells for 3 days, the medium was removed therefrom, and exchanged with an M199 medium containing 0.5% bovine serum albumin (manufactured by Sigma).
As the negative control, that with addition of distilled water was used. After the termination of the culture, the NGF concentration in the culture medium was assayed by an enzyme immunoassay method (NGF Emax Immuno Assay System, manufactured by Promega). The degree of the enhancement for NGF production at each added amount was expressed in percentage as the enhancement ratio (%) on the basis of the NGF concentration in the cell culture medium at each added amount when the NGF concentration in the cell culture medium of the negative control was defined as 100%. The experiment was carried out twice, and an average value was taken.
The enhancing activity for NGF production of myricitrin (manufactured by Funakoshi) was assayed in the same manner as in item (1) of Example 16. Myricitrin was added so as to have a final concentration of 0, 31.3, 62.5, 125 or 250 μM.
The enhancing activity for NGF production of quercitrin (manufactured by Sigma) was assayed in the same manner as in item (1) of Example 16. Quercitrin was added so as to have a final concentration of 0, 31.3, 62.5, 125 or 250 μM.

The text below walks through data of patent US7268160B2, “Remedies” (Takara Bio, Inc., priority 2000, dated 2007).

As for `O=C(O)/C=C/c1ccc(O)c(O)c1` [CA, caffeic acid, reference compound], the activity at 50 µM in assay [1] (added amount 50 μM) was 165%. Also, the activity at 100 µM in assay [1] (added amount 100 μM) was found to be 170%. Besides, the activity at 200 µM in assay [1] (added amount 200 μM) came to 200%. In assay [2], the “Enhancement of NGF production (in words)” value was “enhanced NGF production in a concentration-dependent manner”. Moreover, the results for the “Enhancement Ratio (%)” value in assay [2] (added amount 50 μM), in assay [2] (added amount 100 μM) and in assay [2] (added amount 200 μM) were 89.7%, 150% and 349%, respectively.
Take `COc1cc(/C=C/C(=O)CC(=O)/C=C/c2ccc(O)c(OC)c2)ccc1O` [Compound (16), Curcumin]: the “Enhancement of NGF production (in words)” value in assay [2] is reported as “enhanced NGF production in the L-M cells in a concentration-dependent manner”. For the same molecule, the “Enhancement Ratio (%)” value is recorded as 114% in assay [2] (added amount 25 μM), 116% in assay [2] (added amount 50 μM) and 261% in assay [2] (added amount 100 μM).
`O=c1c(O)c(-c2cc(O)c(O)c(O)c2)oc2cc(O)cc(O)c12` [Myricetin, myricetin]: the “Enhancement of NGF production (in words)” value in assay [3] is on record as “enhanced NGF production in the L-M cells in a concentration-dependent manner”.
As for `C[C@H]1O[C@@H](Oc2c(-c3cc(O)c(O)c(O)c3)oc3cc(O)cc(O)c3c2=O)[C@@H](O)[C@@H](O)[C@@H]1O` [Myricitrin, myricitrin], the “Enhancement of NGF production (in words)” value in assay [3] is “enhanced NGF production in the L-M cells in a concentration-dependent manner”. The “Enhancement Ratio (%)” value stood at 105% in assay [3] (added amount 31.3 μM), 159% in assay [3] (added amount 62.5 μM), 294% in assay [3] (added amount 125 μM) and 304% in assay [3] (added amount 250 μM).
As to `O=c1c(O)c(-c2ccc(O)c(O)c2)oc2cc(O)cc(O)c12` [Quercetin, quercetin], the “Enhancement of NGF production (in words)” value in assay [3] was “enhanced NGF production in the L-M cells in a concentration-dependent manner”. The results for the “Enhancement Ratio (%)” value in assay [3] (added amount 31.3 μM), in assay [3] (added amount 62.5 μM) and in assay [3] (added amount 250 μM) were 122%, 108% and 219%, respectively.
Regarding `C[C@@H]1O[C@@H](Oc2c(-c3ccc(O)c(O)c3)oc3cc(O)cc(O)c3c2=O)[C@H](O)[C@H](O)[C@H]1O` [Quercitrin, quercitrin], the “Enhancement of NGF production (in words)” value in assay [3] is “enhanced NGF production in the L-M cells in a concentration-dependent manner”. In addition, the “Enhancement Ratio (%)” value came out at 122% in assay [3] (added amount 31.3 μM), 140% in assay [3] (added amount 62.5 μM), 193% in assay [3] (added amount 125 μM) and 207% in assay [3] (added amount 250 μM).
As to Isoliquiritigenin [Compound (14)], the “Enhancement of NGF production (in words)” value in assay [2] was “enhanced NGF production in the L-M cells in a concentration-dependent manner”. Besides, the “Enhancement Ratio (%)” value is recorded as 310% in assay [2] (added amount 50 μM), 550% in assay [2] (added amount 100 μM) and 1884% in assay [2] (added amount 200 μM).
